Target: T1, full length AKT E17K (Homo sapiens, UniProt P31749, E17K)
T1 construct: host or cells: HEK-293 (ATCC CRL-1573)
Experiment: NanoBRET Target Engagement (TE) Assay
Format: cell-based
Conditions: competitive displacement of tracer in cells, read-out: AKT1 E17K IC50
Method in brief: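 Compound and tracer incubated 2 h before luminescence at donor 450 nm and acceptor 600 nm, with extracellular signal inhibited. EC50 by sigmoidal variable-slope regression.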

T1 sequence (P31749 whole entry E17K): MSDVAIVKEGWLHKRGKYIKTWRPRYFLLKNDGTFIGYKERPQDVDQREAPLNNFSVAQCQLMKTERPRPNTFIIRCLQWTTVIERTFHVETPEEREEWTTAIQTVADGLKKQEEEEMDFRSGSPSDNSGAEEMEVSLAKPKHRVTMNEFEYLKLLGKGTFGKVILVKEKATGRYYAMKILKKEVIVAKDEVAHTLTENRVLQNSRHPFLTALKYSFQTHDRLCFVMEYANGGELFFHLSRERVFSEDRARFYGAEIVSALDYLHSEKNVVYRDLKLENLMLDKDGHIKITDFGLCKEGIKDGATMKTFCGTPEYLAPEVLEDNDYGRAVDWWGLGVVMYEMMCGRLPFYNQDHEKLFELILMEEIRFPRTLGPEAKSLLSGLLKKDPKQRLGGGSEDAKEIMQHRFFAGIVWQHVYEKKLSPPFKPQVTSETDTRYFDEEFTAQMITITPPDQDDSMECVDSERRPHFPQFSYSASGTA

SMILES	IC50
Cc1cc(-c2ccc3nc(-c4cccnc4N)n(-c4ccc(CN5CCC(Nc6ccnc(C#N)n6)CC5)cc4)c3n2)ccn1 [Example 477, 4-((1-(4-(2-(2-Aminopyridin-3-yl)-5-(2-methylpyridin-4-yl)-3H-imidazo[4,5-b]pyridin-3-yl)benzyl)piperidin-4-yl)amino)pyrimidine-2-carbonitrile]	< 15 nM
N#Cc1nccc(NC2CCN(Cc3ccc(-n4c(-c5cccnc5N)nc5ccc(-c6cnsc6)nc54)cc3)CC2)n1 [Example 480, 4-((1-(4-(2-(2-Aminopyridin-3-yl)-5-(isothiazol-4-yl)-3H-imidazo[4,5-b]pyridin-3-yl)benzyl)piperidin-4-yl)amino)pyrimidine-2-carbonitrile]	< 15 nM
Cn1cc(-c2ccc3nc(-c4cccnc4N)n(-c4ccc(CN5CCC(Nc6ccnc(C#N)n6)CC5)cc4)c3n2)cc1C#N [Example 481, 4-((1-(4-(2-(2-Aminopyridin-3-yl)-5-(5-cyano-1-methyl-1H-pyrrol-3-yl)-3H-imidazo[4,5-b]pyridin-3-yl)benzyl)piperidin-4-yl)amino)pyrimidine-2-carbonitrile]	< 15 nM
Cc1c(-c2ccc3nc(-c4cccnc4N)n(-c4ccc(CN5CCC(Nc6ccnc(C#N)n6)CC5)cc4)c3n2)cnn1C [Example 484, 4-((1-(4-(2-(2-Aminopyridin-3-yl)-5-(1,5-dimethyl-1H-pyrazol-4-yl)-3H-imidazo[4,5-b]pyridin-3-yl)benzyl)piperidin-4-yl)amino)pyrimidine-2-carbonitrile]	< 15 nM
N#Cc1nccc(NC2CCN(Cc3ccc(-n4c(-c5cccnc5N)nc5ccc(Br)nc54)cc3)CC2)n1 [Example 485, 4-((1-(4-(2-(2-Aminopyridin-3-yl)-5-bromo-3H-imidazo[4,5-b]pyridin-3-yl)benzyl)piperidin-4-yl)amino)pyrimidine-2-carbonitrile]	< 15 nM
[2H]C([2H])(c1ccc(-n2c(-c3cccnc3N)nc3ccc(-c4ccc(F)cc4)nc32)cc1)N1CCC(N(C)c2ccnc(C#N)n2)CC1 [Example 488, 4-((1-((4-(2-(2-Aminopyridin-3-yl)-5-(4-fluorophenyl)-3H-imidazo[4,5-b]pyridin-3-yl)phenyl)methyl-d2)piperidin-4-yl)(methyl)amino)pyrimidine-2-carbonitrile]	< 15 nM
[2H]C([2H])(c1ccc(-n2c(-c3cccnc3N)nc3ccc(-c4ccc(F)cc4)nc32)cc1)N1CCC(Nc2ccnc(C#N)n2)CC1 [Example 489, 4-((1-((4-(2-(2-Aminopyridin-3-yl)-5-(4-fluorophenyl)-3H-imidazo[4,5-b]pyridin-3-yl)phenyl)methyl-d2)piperidin-4-yl)amino)pyrimidine-2-carbonitrile]	< 15 nM
N#Cc1nccc(N2CC3(CCN(Cc4ccc(-n5c(-c6cccnc6N)nc6ccc(-c7ccc(F)cc7)nc65)cc4)CC3)C2)n1 [Example 490, 4-(7-(4-(2-(2-Aminopyridin-3-yl)-5-(4-fluorophenyl)-3H-imidazo[4,5-b]pyridin-3-yl)benzyl)-2,7-diazaspiro[3.5]nonan-2-yl)pyrimidine-2-carbonitrile]	< 15 nM
N#Cc1nccc(N2CCC3(CC2)CN(Cc2ccc(-n4c(-c5cccnc5N)nc5ccc(-c6ccc(F)cc6)nc54)cc2)C3)n1 [Example 491, 4-(2-(4-(2-(2-Aminopyridin-3-yl)-5-(4-fluorophenyl)-3H-imidazo[4,5-b]pyridin-3-yl)benzyl)-2,7-diazaspiro[3.5]nonan-7-yl)pyrimidine-2-carbonitrile]	< 15 nM
C[S+]([O-])c1ccc2nc(-c3cccnc3N)n(-c3ccc(CN4CCC(Nc5ccnc(C#N)n5)CC4)cc3)c2n1 (stereo not drawn) [Example 492, 4-((1-(4-(2-(2-Aminopyridin-3-yl)-5-(methylsulfinyl)-3H-imidazo[4,5-b]pyridin-3-yl)benzyl)piperidin-4-yl)amino)pyrimidine-2-carbonitrile]	60 to 600 nM
N#Cc1nccc(NC2CCN(Cc3ccc(-n4c(-c5cccnc5N)nc5c(O)ncnc54)cc3)CC2)n1 [Example 494, 4-((1-(4-(8-(2-aminopyridin-3-yl)-6-hydroxy-9H-purin-9-yl)benzyl)piperidin-4-yl)amino)pyrimidine-2-carbonitrile]	600 to 10000 nM
N#Cc1nccc(NC2CCN(Cc3ccc(-n4c(-c5cccnc5N)nc5ccc(O)nc54)cc3)CC2)n1 [Example 496, 4-((1-(4-(2-(2-Aminopyridin-3-yl)-5-hydroxy-3H-imidazo[4,5-b]pyridin-3-yl)benzyl)piperidin-4-yl)amino)pyrimidine-2-carbonitrile]	15 to 60 nM
N#Cc1nccc(NC2CCN(Cc3ccc(-n4c(-c5cccnc5N)nc5ccc(N)nc54)cc3)CC2)n1 [Example 497, 4-((1-(4-(5-Amino-2-(2-aminopyridin-3-yl)-3H-imidazo[4,5-b]pyridin-3-yl)benzyl)piperidin-4-yl)amino)pyrimidine-2-carbonitrile]	15 to 60 nM
N#Cc1nccc(NC2CCN(Cc3ccc(-n4c(-c5cccnc5N)nc5ccc(-c6ccc(F)cc6Cl)nc54)cc3)CC2)n1 [Example 498, 4-((1-(4-(2-(2-Aminopyridin-3-yl)-5-(2-chloro-4-fluorophenyl)-3H-imidazo[4,5-b]pyridin-3-yl)benzyl)piperidin-4-yl)amino)pyrimidine-2-carbonitrile]	15 to 60 nM
[2H]C([2H])([2H])N(c1ccnc(C#N)n1)C1CCN(C([2H])([2H])c2ccc(-n3c(-c4cccnc4N)nc4cccnc43)cc2)CC1 [Example 502, 4-((1-((4-(2-(2-Aminopyridin-3-yl)-3H-imidazo[4,5-b]pyridin-3-yl)phenyl)methyl-d2)piperidin-4-yl)(methyl-d3)amino)pyrimidine-2-carbonitrile]	15 to 60 nM
[2H]C1(Nc2ccnc(C#N)n2)CCN(Cc2ccc(-n3c(-c4cccnc4N)nc4cccnc43)cc2)CC1 [Example 503, 4-((1-(4-(2-(2-Aminopyridin-3-yl)-3H-imidazo[4,5-b]pyridin-3-yl)benzyl)piperidin-4-yl-4-d)amino)pyrimidine-2-carbonitrile]	15 to 60 nM

Further lines, results first:

IC50	SMILES
< 15 nM	Cc1cncc(-c2ccc3nc(-c4cccnc4N)n(-c4ccc(CN5CCC(Nc6ccnc(C#N)n6)CC5)cc4)c3n2)c1 [Example 478, 4-((1-(4-(2-(2-Aminopyridin-3-yl)-5-(5-methylpyridin-3-yl)-3H-imidazo[4,5-b]pyridin-3-yl)benzyl)piperidin-4-yl)amino)pyrimidine-2-carbonitrile]
< 15 nM	CC(C)n1cc(-c2ccc3nc(-c4cccnc4N)n(-c4ccc(CN5CCC(Nc6ccnc(C#N)n6)CC5)cc4)c3n2)cn1 [Example 479, 4-((1-(4-(2-(2-Aminopyridin-3-yl)-5-(1-isopropyl-1H-pyrazol-4-yl)-3H-imidazo[4,5-b]pyridin-3-yl)benzyl)piperidin-4-yl)amino)pyrimidine-2-carbonitrile]
< 15 nM	N#Cc1nccc(NC2CCN(Cc3ccc(-n4c(-c5cccnc5N)nc5ccc(-c6cscn6)nc54)cc3)CC2)n1 [Example 482, 4-((1-(4-(2-(2-Aminopyridin-3-yl)-5-(thiazol-4-yl)-3H-imidazo[4,5-b]pyridin-3-yl)benzyl)piperidin-4-yl)amino)pyrimidine-2-carbonitrile]
< 15 nM	N#Cc1nccc(NC2CCN(Cc3ccc(-n4c(-c5cccnc5N)nc5ccc(-c6ccns6)nc54)cc3)CC2)n1 [Example 483, 4-((1-(4-(2-(2-Aminopyridin-3-yl)-5-(isothiazol-5-yl)-3H-imidazo[4,5-b]pyridin-3-yl)benzyl)piperidin-4-yl)amino)pyrimidine-2-carbonitrile]
< 15 nM	[2H]C([2H])(c1ccc(-n2c(-c3cccnc3N)nc3ccc(Br)nc32)cc1)N1CCC(Nc2ccnc(C#N)n2)CC1 [Example 486, 4-((1-((4-(2-(2-Aminopyridin-3-yl)-5-bromo-3H-imidazo[4,5-b]pyridin-3-yl)phenyl)methyl-d2)piperidin-4-yl)amino)pyrimidine-2-carbonitrile]
< 15 nM	N#Cc1ncnc(NC2CCN(Cc3ccc(-n4c(-c5cccnc5N)nc5ccc(-c6ccc(F)cc6)nc54)cc3)CC2)n1 [Example 487, 4-((1-(4-(2-(2-Aminopyridin-3-yl)-5-(4-fluorophenyl)-3H-imidazo[4,5-b]pyridin-3-yl)benzyl)piperidin-4-yl)amino)-1,3,5-triazine-2-carbonitrile]
< 15 nM	Cc1cc(C)c2nc(-c3cccnc3N)n(-c3ccc(CN4CCC(Nc5ccnc(C#N)n5)CC4)cc3)c2n1 [Example 493, 4-((1-(4-(2-(2-Aminopyridin-3-yl)-5,7-dimethyl-3H-imidazo[4,5-b]pyridin-3-yl)benzyl)piperidin-4-yl)amino)pyrimidine-2-carbonitrile]
< 15 nM	N#Cc1nccc(NC2CCN(Cc3ccc(-n4c(-c5cccnc5N)nc5ccc(-c6ccccn6)nc54)cc3)CC2)n1 [Example 495, 4-((1-(4-(2-(2-Aminopyridin-3-yl)-5-(pyridin-2-yl)-3H-imidazo[4,5-b]pyridin-3-yl)benzyl)piperidin-4-yl)amino)pyrimidine-2-carbonitrile]
< 15 nM	Cc1cc2nc(-c3cccnc3N)n(-c3ccc(CN4CCC(Nc5ccnc(C#N)n5)CC4)cc3)c2nc1-c1ccc(F)cc1 [Example 499, 4-((1-(4-(2-(2-aminopyridin-3-yl)-5-(4-fluorophenyl)-6-methyl-3H-imidazo[4,5-b]pyridin-3-yl)benzyl)piperidin-4-yl)amino)pyrimidine-2-carbonitrile]
< 15 nM	N#Cc1ccc2nc(-c3cccnc3N)n(-c3ccc(CN4CCC(Nc5ccnc(C#N)n5)CC4)cc3)c2c1 [Example 500, 2-(2-Aminopyridin-3-yl)-1-(4-((4-((2-cyanopyrimidin-4-yl)amino)piperidin-1-yl)methyl)phenyl)-1H-benzo[d]imidazole-6-carbonitrile]
15 to 60 nM	N#Cc1ccc2c(c1)nc(-c1cccnc1N)n2-c1ccc(CN2CCC(Nc3ccnc(C#N)n3)CC2)cc1 [Example 501, 2-(2-Aminopyridin-3-yl)-1-(4-((4-((2-cyanopyrimidin-4-yl)amino)piperidin-1-yl)methyl)phenyl)-1H-benzo[d]imidazole-5-carbonitrile]

— US12209087B2, “AKT1 modulators” (Alterome Therapeutics, Inc., priority 2022, dated 2025)
